Structures are written as SMILES.

This data set in a line: Physical and chemical properties: solubility. Format: physicochemical. The settings on record: in water, methanol, DMSO. As for the experimental part:
The physical and chemical properties, hydrogen spectrum and mass spectrometry detection data of each compound are as follows:
It is calculated by a HR-ESI-MS [m/z 225.1406, calculated value being 225.1465] that a molecular weight of the compound is 202, a molecular formula is C12H14N2O, and a degree of unsaturation is 7.
It is calculated by the HR-ESI-MS [m/z 225.1406, calculated value being 225.1465] that a molecular weight of the compound is 202, a molecular formula is C12H14N2O, and a degree of unsaturation is 7.

For the molecule `C[C@H]1N[C@H](O)Cc2c1[nH]c1ccccc21` [Compound 1, Noni alkaloid C], the solubility entry is “easily soluble in water, methanol, DMSO”. To `C[C@H]1N[C@@H](O)Cc2c1[nH]c1ccccc21` [Compound 2, Noni alkaloid D] belongs “easily soluble in water, methanol, DMSO”.

(Values after patent publication US12319687B2, “Indole alkaloid compound in noni enzyme and preparation method and application thereof” (HAINAN NORMAL UNIVERSITY, priority 2020, dated 2025).)
